Source: patent publication US20220313782A1, “METHODS AND COMPOSITIONS INVOLVING TERT ACTIVATING THERAPIES” (BOARD OF REGENTS, THE UNIVERSITY OF TEXAS SYSTEM, priority 2019, published 2022)

What was measured:
Tert gene expression = assay: Tert mRNA levels in cortex and hippocampus of AD mice treated with histone methyltransferase inhibitors; format: in vivo, mouse; details: cortex and hippocampus of AD mice (5xFAD), FIG. 1I
Text: Tert mRNA levels in the cortex of 3xTg-AD and wildtype control (B6129SF2/J) mice (n=4; 3-month-old). (B) Tert mRNA levels in the hippocampus of 5xFAD and wildtype littermate control mice (n=4; 2˜3-month-old). (C) Tert mRNA levels in primary cortical and hippocampal neurons isolated from 3xTg-AD and control mice at DIV 14 (n=3). (D) Tert mRNA levels in primary cortical and hippocampal neurons isolated from 5xFAD and control mice at DIV 14 (n=3). (E) Telomerase activity in hippocampal neurons isolated from 5xFAD and control mice (n=4; 2˜3-month-old). (F) Representative view of H3K9me3 repressive histone mark occupancy in Tert gene of 5xFAD and control mouse primary neurons at DIV 14. […]
Focusing in particular on the neuronal population, the inventors isolated and cultured primary cortical and hippocampal neurons from E18.5-E19.5 AD mouse brains, and Tert mRNA levels were examined at 14 Days in vitro (DIV), by which time the synaptic network is mature. […] To investigate whether reversible H3K9 methylation is involved in the repression of Tert, the inventors assessed the impact of histone methyltransferase inhibitors chaetocin and BIX-01294, the non-selective cofactor-competitive inhibitor and the selective substrate-competitive inhibitor, respectively, in the AD mouse model (Greiner et al., Nat Chem Biol, 2005; Kubicek et al., Mol Cell, 2007; Yuan et al., ACS Chem Biol, 2012). […]

H3K9 methylation marks = details: peripheral administration; cited from earlier work

## COc1cc2nc(N3CCCN(C)CC3)nc(NC3CCN(Cc4ccccc4)CC3)c2cc1OC [BIX-01294]
Tert gene expression
  Tert gene expression (Tert mRNA levels): de-repression of Tert gene expression
H3K9 methylation marks
  H3K9 methylation marks in the central nervous system: reduce H3K9 methylation marks
